Test results taken from ChEMBL document CHEMBL5537113, “Discovery of 1,2-diaryl-3-oxopyrazolidin-4-carboxamides as a new class of MurA enzyme inhibitors and characterization of their antibacterial activity” (Eur J Med Chem, 2023).

Assays:
Clostridioides difficile [1] = test: Bactericidal activity against Clostridioides difficile ATCC BAA1870 assessed as reduction in microbial growth by broth microdilution method; assay type: functional
Clostridioides difficile [2] = test: Antibacterial activity against Clostridioides difficile NR-49294 assessed as reduction in microbial growth incubated for 48 hrs by broth microdilution method; assay type: functional
Clostridioides difficile [3] = test: Antibacterial activity against Clostridioides difficile NR-49278 assessed as reduction in microbial growth incubated for 48 hrs by broth microdilution method; assay type: functional
Clostridioides difficile [4] = test: Antibacterial activity against Clostridioides difficile NR-32889 assessed as reduction in microbial growth incubated for 48 hrs by broth microdilution method; assay type: functional
Clostridioides difficile [5] = test: Antibacterial activity against Clostridioides difficile NR-32895 assessed as reduction in microbial growth incubated for 48 hrs by broth microdilution method; assay type: functional
[6] = test system: Bifidobacterium angulatum; test: Antibacterial activity against Bifidobacterium angulatum HM 1189 assessed as reduction in microbial growth incubated for 48 hrs by broth microdilution method; assay type: functional
Clostridioides difficile [7] = test: Antibacterial activity against Clostridioides difficile NR-49279 assessed as reduction in microbial growth incubated for 48 hrs by broth microdilution method; assay type: functional
Clostridioides difficile [8] = test: Antibacterial activity against Clostridioides difficile NR-49277 assessed as reduction in microbial growth incubated for 48 hrs by broth microdilution method; assay type: functional
Bacteroides fragilis [9] = test: Antibacterial activity against Bacteroides fragilis HM 719 assessed as reduction in microbial growth incubated for 48 hrs by broth microdilution method; assay type: functional
Clostridioides difficile [10] = test: Bactericidal activity against Clostridioides difficile NR-32904 assessed as reduction in microbial growth by broth microdilution method; assay type: functional
Lactobacillus gasseri [11] = test: Antibacterial activity against Lactobacillus gasseri HM 407 assessed as reduction in microbial growth incubated for 48 hrs by broth microdilution method; assay type: functional
Clostridioides difficile [12] = test: Antibacterial activity against Clostridioides difficile ATCC 43255 assessed as reduction in microbial growth incubated for 48 hrs by broth microdilution method; assay type: functional
Bifidobacterium breve [13] = test: Antibacterial activity against Bifidobacterium breve HM 412 assessed as reduction in microbial growth incubated for 48 hrs by broth microdilution method; assay type: functional
Clostridioides difficile [14] = test: Bactericidal activity against Clostridioides difficile NR-49284 assessed as reduction in microbial growth by broth microdilution method; assay type: functional
Clostridioides difficile [15] = test: Antibacterial activity against Clostridioides difficile NR-49286 assessed as reduction in microbial growth incubated for 48 hrs by broth microdilution method; assay type: functional
Lactobacillus crispatus [16] = test: Antibacterial activity against Lactobacillus crispatus HM 420 assessed as reduction in microbial growth incubated for 48 hrs by broth microdilution method; assay type: functional
Bifidobacterium breve [17] = test: Antibacterial activity against Bifidobacterium breve HM1120 assessed as reduction in microbial growth incubated for 48 hrs by broth microdilution method; assay type: functional
Bacteroides fragilis [18] = test: Antibacterial activity against Bacteroides fragilis HM 718 assessed as reduction in microbial growth incubated for 48 hrs by broth microdilution method; assay type: functional
Clostridioides difficile [19] = test: Antibacterial activity against Clostridioides difficile NR-49282 assessed as reduction in microbial growth incubated for 48 hrs by broth microdilution method; assay type: functional
Bacteroides fragilis [20] = test: Antibacterial activity against Bacteroides fragilis HM 20 assessed as reduction in microbial growth incubated for 48 hrs by broth microdilution method; assay type: functional
Clostridioides difficile [21] = test: Antibacterial activity against Clostridioides difficile HM-88 assessed as reduction in microbial growth incubated for 48 hrs by broth microdilution method; assay type: functional
Clostridioides difficile [22] = test: Antibacterial activity against Clostridioides difficile NR-32903 assessed as reduction in microbial growth incubated for 48 hrs by broth microdilution method; assay type: functional
Clostridioides difficile [23] = test: Antibacterial activity against Clostridioides difficile NR-49284 assessed as reduction in microbial growth incubated for 48 hrs by broth microdilution method; assay type: functional
Clostridioides difficile [24] = test: Antibacterial activity against Clostridioides difficile NR-32904 assessed as reduction in microbial growth incubated for 48 hrs by broth microdilution method; assay type: functional
Clostridioides difficile [25] = test: Antibacterial activity against Clostridioides difficile NR-49287 assessed as reduction in microbial growth incubated for 48 hrs by broth microdilution method; assay type: functional
Clostridioides difficile [26] = test: Antibacterial activity against Clostridioides difficile NR-49283 assessed as reduction in microbial growth incubated for 48 hrs by broth microdilution method; assay type: functional
Clostridioides difficile [27] = test: Bactericidal activity against Clostridioides difficile ATCC 43255 assessed as reduction in microbial growth by broth microdilution method; assay type: functional
Lactobacillus crispatus [28] = test: Antibacterial activity against Lactobacillus crispatus HM 103 assessed as reduction in microbial growth incubated for 48 hrs by broth microdilution method; assay type: functional
Clostridioides difficile [29] = test: Antibacterial activity against Clostridioides difficile NR-49288 assessed as reduction in microbial growth incubated for 48 hrs by broth microdilution method; assay type: functional
Clostridioides difficile [30] = test: Antibacterial activity against Clostridioides difficile NR-13427 assessed as reduction in microbial growth incubated for 48 hrs by broth microdilution method; assay type: functional
Bacteroides fragilis [31] = test: Antibacterial activity against Bacteroides fragilis HM 709 assessed as reduction in microbial growth incubated for 48 hrs by broth microdilution method; assay type: functional
Lactobacillus gasseri [32] = test: Antibacterial activity against Lactobacillus gasseri HM 403 assessed as reduction in microbial growth incubated for 48 hrs by broth microdilution method; assay type: functional
Clostridioides difficile [33] = test: Antibacterial activity against Clostridioides difficile NR-49291 assessed as reduction in microbial growth incubated for 48 hrs by broth microdilution method; assay type: functional
Clostridioides difficile [34] = test: Antibacterial activity against Clostridioides difficile NR-49285 assessed as reduction in microbial growth incubated for 48 hrs by broth microdilution method; assay type: functional
Clostridioides difficile [35] = test: Bactericidal activity against Clostridioides difficile NR-49278 assessed as reduction in microbial growth by broth microdilution method; assay type: functional
Clostridioides difficile [36] = test: Bactericidal activity against Clostridioides difficile NR-32895 assessed as reduction in microbial growth by broth microdilution method; assay type: functional
Clostridioides difficile [37] = test: Antibacterial activity against Clostridioides difficile NR-13436 assessed as reduction in microbial growth incubated for 48 hrs by broth microdilution method; assay type: functional
Bifidobacterium longum = test: Antibacterial activity against Bifidobacterium longum HM 846 assessed as reduction in microbial growth incubated for 48 hrs by broth microdilution method; assay type: functional
[38] = Drug uptake in Escherichia coli harboring tolC deletion mutant assessed per 1.6x10^9 cells at 10 uM incubated for 30 mins by LC analysis; assay type: ADME; details: 0.5 h
Staphylococcus aureus [39] = test: Antibacterial activity against methicillin resistant Staphylococcus aureus USA300 assessed as reduction in microbial growth by CLSI based broth microdilution method; assay type: functional
Staphylococcus aureus [40] = test: Antibacterial activity against vancomycin resistant Staphylococcus aureus 10 assessed as reduction in microbial growth by CLSI based broth microdilution method; assay type: functional
[41] = Drug uptake in Escherichia coli harboring tolC deletion mutant at 10 uM incubated for 30 mins by LC analysis; assay type: ADME; details: 0.5 h
Staphylococcus aureus [42] = test: Antibacterial activity against methicillin sensitive Staphylococcus aureus NRS107 assessed as reduction in microbial growth by CLSI based broth microdilution method; assay type: functional
Enterococcus faecalis = test: Antibacterial activity against Enterococcus faecalis ATCC 51299 assessed as reduction in microbial growth by CLSI based broth microdilution method; assay type: functional
[43] = biological target: UDP-N-acetylglucosamine 1-carboxyvinyltransferase (Escherichia coli K-12, UniProt P0A749); test: Inhibition of Escherichia coli K12 His-tagged MurA expressed in Escherichia coli BL21 cells using UNAG as substrate pre incubated for 15 mins followed by substrate addition and measured after 15 mins by microplate reader analysis
Staphylococcus aureus [44] = test: Antibacterial activity against Staphylococcus aureus Newman D2C NCTC 10833 assessed as reduction in microbial growth incubated for 16 hrs by serial dilution method; assay type: functional
[45] = biological target: UDP-N-acetylglucosamine 1-carboxyvinyltransferase (Escherichia coli K-12) (UniProt P0A749); test: Inhibition of Escherichia coli K12 His-tagged MurA expressed in Escherichia coli BL21 cells at 50 uM using UNAG as substrate pre incubated for 15 mins followed by substrate addition and measured after 15 mins by microplate reader analysis relative to control; details: time 30.0 min
Staphylococcus aureus [46] = test: Antibacterial activity against methicillin resistant Staphylococcus aureus NRS119 assessed as reduction in microbial growth by CLSI based broth microdilution method; assay type: functional
Streptococcus pneumoniae = test: Antibacterial activity against Streptococcus pneumoniae ATCC 700677 assessed as reduction in microbial growth by CLSI based broth microdilution method; assay type: functional
Escherichia coli = test: Antibacterial activity against Escherichia coli harboring tolC deletion mutant assessed as reduction in microbial growth incubated for 16 hrs by serial dilution method; assay type: functional
Clostridioides difficile [47] = test: Antibacterial activity against Clostridioides difficile ATCC BAA1870 assessed as reduction in microbial growth incubated for 48 hrs by broth microdilution method; assay type: functional

Chain of UDP-N-acetylglucosamine 1-carboxyvinyltransferase (P0A749 whole entry): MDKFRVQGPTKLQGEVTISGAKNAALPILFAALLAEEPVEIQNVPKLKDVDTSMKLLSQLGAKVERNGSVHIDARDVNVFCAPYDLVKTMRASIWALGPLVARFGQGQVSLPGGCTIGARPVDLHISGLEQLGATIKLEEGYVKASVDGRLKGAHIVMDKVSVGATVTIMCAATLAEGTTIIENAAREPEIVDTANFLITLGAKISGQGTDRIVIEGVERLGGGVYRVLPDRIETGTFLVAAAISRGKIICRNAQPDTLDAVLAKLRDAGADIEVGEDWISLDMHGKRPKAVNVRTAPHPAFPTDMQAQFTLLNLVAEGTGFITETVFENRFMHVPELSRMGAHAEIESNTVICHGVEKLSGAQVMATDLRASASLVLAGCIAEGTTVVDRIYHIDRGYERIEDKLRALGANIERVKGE
Chain of UDP-N-acetylglucosamine 1-carboxyvinyltransferase (Escherichia coli K-12) (P0A749 whole entry): as above

CCc1c(Cl)c(O)c(Cl)c(O)c1C(=O)O[C@H]1[C@H](O)[C@H](OC)[C@H](OC/C2=C\C=C\C[C@H](O)/C(C)=C/[C@H](CC)[C@@H](O[C@@H]3OC(C)(C)[C@@H](OC(=O)C(C)C)[C@H](O)[C@@H]3O)/C(C)=C/C(C)=C/C[C@@H]([C@@H](C)O)OC2=O)O[C@@H]1C [FIDAXOMICIN]
MBC (Clostridioides difficile [1]): 0.25 µg/mL | MIC (Clostridioides difficile [2]): 0.06 µg/mL | MIC (Clostridioides difficile [3]): 0.06 µg/mL | MIC (Clostridioides difficile [4]): 0.03 µg/mL | MIC (Clostridioides difficile [5]): 0.03 µg/mL | MIC [6]: ≤ 0.06 µg/mL | MIC (Clostridioides difficile [7]): 0.125 µg/mL | MIC (Clostridioides difficile [8]): 0.06 µg/mL | MIC (Bacteroides fragilis [9]): > 64 µg/mL | MBC (Clostridioides difficile [10]): 0.06 µg/mL | MIC (Lactobacillus gasseri [11]): 1 µg/mL | MIC (Clostridioides difficile [12]): 0.03 µg/mL | MIC (Bifidobacterium breve [13]): ≤ 0.06 µg/mL | MBC (Clostridioides difficile [14]): 0.06 µg/mL | MIC (Clostridioides difficile [15]): 0.125 µg/mL | MIC (Lactobacillus crispatus [16]): 2 µg/mL | MIC (Bifidobacterium breve [17]): ≤ 0.06 µg/mL | MIC (Bacteroides fragilis [18]): > 64 µg/mL | MIC (Clostridioides difficile [19]): 0.06 µg/mL | MIC (Bacteroides fragilis [20]): > 64 µg/mL | MIC (Clostridioides difficile [21]): 0.015 µg/mL | MIC (Clostridioides difficile [22]): 0.06 µg/mL | MIC (Clostridioides difficile [23]): 0.06 µg/mL | MIC (Clostridioides difficile [24]): 0.06 µg/mL | MIC (Clostridioides difficile [25]): 0.125 µg/mL | MIC (Clostridioides difficile [26]): 0.06 µg/mL | MBC (Clostridioides difficile [27]): 0.06 µg/mL | MIC (Lactobacillus crispatus [28]): 0.5 µg/mL | MIC (Clostridioides difficile [29]): 0.03 µg/mL | MIC (Clostridioides difficile [30]): 0.06 µg/mL | MIC (Bacteroides fragilis [31]): > 64 µg/mL | MIC (Lactobacillus gasseri [32]): 1 µg/mL | MIC (Clostridioides difficile [33]): 0.125 µg/mL | MIC (Clostridioides difficile [34]): 0.06 µg/mL | MBC (Clostridioides difficile [35]): 0.125 µg/mL | MBC (Clostridioides difficile [36]): 0.06 µg/mL | MIC (Clostridioides difficile [37]): 0.06 µg/mL | MIC (Bifidobacterium longum): ≤ 0.06 µg/mL

N#Cc1cnc(NC(=O)C2CN(c3cccc(Cl)c3)N(c3cccc(Cl)c3)C2=O)s1 (stereo unspecified)
Drug uptake [38]: 84 µM | MIC (Staphylococcus aureus [39]): 32 µg/mL | MIC (Staphylococcus aureus [40]): 8 µg/mL | Drug uptake [41]: 2560 nM | MIC (Staphylococcus aureus [42]): 8 µg/mL | MIC (Enterococcus faecalis): > 64 µg/mL | IC50 [43]: 10.9 µM | MIC (Staphylococcus aureus [44]): 10 µM | inhibition [45]: 70.8% | MIC (Staphylococcus aureus [46]): 16 µg/mL | MIC (Streptococcus pneumoniae): 32 µg/mL | MIC (Escherichia coli): 10 µM | MIC (Clostridioides difficile [47]): 32 µg/mL
